Results published in patent US9834564B2, “Substituted quinolines as PDE-10 inhibitors” (priority 2010, dated 2017).

These compounds were tested against recombinant human PDE-10 enzyme (PDE-10A) (Homo sapiens (Human), UniProt Q9Y233) (assay: IMAP PDE Fluorescence Polarization assay, human PDE-10 inhibition (enzyme assay)). Conditions: recombinant human PDE-10, fluorescein-labeled cAMP/cGMP substrate, 40 min at 37° C.
Format: biochemical
Experimental: In one embodiment, the compounds provided herein were assayed for their ability to inhibit human PDE-10A. In one embodiment, the activities of the compounds were determined using the Molecular Devices IMAP PDE Fluorescence Polarization assay using recombinant human PDE-10 enzyme expressed in a baculoviral system. Briefly, 10 μL of a compound (0.2 nM-20 μM) was added to either a 96-well half area black plate or a 384-well black plate along with 10 μL of Fluorescein-labeled cAMP/cGMP substrate as per manufacturer's instructions and 10 μL of PDE enzyme (activity 0.1 U). Following a 40-minute incubation at 37° C., 60 μL of IMAP binding reagent was added. […] The data was analyzed using Prism Software (GraphPad Inc, San Diego, Calif.).

recombinant human PDE-10 enzyme (PDE-10A), sequence (Q9Y233 whole entry): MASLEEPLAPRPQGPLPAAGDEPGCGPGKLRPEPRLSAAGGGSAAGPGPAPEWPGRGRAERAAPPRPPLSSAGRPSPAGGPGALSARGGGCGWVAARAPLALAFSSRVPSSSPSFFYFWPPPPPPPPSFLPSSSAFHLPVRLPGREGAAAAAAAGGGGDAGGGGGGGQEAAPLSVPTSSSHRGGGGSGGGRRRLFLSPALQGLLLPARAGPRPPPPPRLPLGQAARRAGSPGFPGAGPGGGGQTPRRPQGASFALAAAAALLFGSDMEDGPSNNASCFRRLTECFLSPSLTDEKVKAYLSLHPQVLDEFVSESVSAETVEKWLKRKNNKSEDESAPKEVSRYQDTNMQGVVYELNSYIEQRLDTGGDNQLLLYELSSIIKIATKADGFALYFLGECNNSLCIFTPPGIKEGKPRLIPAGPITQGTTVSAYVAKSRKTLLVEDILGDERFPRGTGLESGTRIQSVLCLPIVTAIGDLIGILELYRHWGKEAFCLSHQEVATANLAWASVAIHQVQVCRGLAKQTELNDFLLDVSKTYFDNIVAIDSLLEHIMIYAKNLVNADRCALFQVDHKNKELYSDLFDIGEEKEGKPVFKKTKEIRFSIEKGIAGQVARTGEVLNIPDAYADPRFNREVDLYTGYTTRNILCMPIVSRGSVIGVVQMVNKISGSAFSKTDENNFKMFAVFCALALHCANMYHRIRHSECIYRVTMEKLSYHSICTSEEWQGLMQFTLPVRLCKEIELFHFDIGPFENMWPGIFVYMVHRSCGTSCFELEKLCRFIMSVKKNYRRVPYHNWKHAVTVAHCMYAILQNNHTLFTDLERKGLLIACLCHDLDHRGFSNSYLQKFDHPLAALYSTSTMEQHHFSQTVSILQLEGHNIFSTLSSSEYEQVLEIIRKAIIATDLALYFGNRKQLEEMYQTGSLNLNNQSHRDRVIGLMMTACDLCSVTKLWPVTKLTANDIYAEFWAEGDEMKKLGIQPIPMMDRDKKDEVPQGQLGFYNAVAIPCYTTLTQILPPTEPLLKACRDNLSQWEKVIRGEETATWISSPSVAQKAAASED

Structure (SMILES) | IC50 [nM]
Cc1ncc(C)n2nc(CCc3nc4ccccc4cc3F)nc12 [Compound 127] | < 500
Cc1ccc2ccc(CCc3nc4c(C)ncc(C)n4n3)nc2c1C [Compound 128] | < 500
Cc1ncc(C)n2nc(CCc3ccc4c(F)ccc(F)c4n3)nc12 [Compound 129] | 500 to 1000
Cc1ncc(C)n2nc(CCc3ccc4ccc5ccccc5c4n3)nc12 [Compound 130] | 500 to 1000
Cc1ncc(C)n2nc(CCc3ccc4ccc(F)c(F)c4n3)nc12 [Compound 131] | < 500
Cc1ncc(C)n2nc(CCc3ccc4ccc(Cl)c(Cl)c4n3)nc12 [Compound 132] | 500 to 1000
Cc1ncc(C)n2nc(CCc3ccc4ccc5cccnc5c4n3)nc12 [Compound 133] | < 500
Cc1ccc2ncc(CCc3nc4c(C)ncc(C)n4n3)nc2c1C [Compound 135] | < 500
Cc1ccc2nc(CCc3nc4c(C)ncc(C)n4n3)cnc2c1C [Compound 136] | < 500
Cc1ncc(C)n2nc(CCc3ccc4ccc5c(c4n3)NCCC5)nc12 [Compound 137] | < 500
Cc1ncc(C)n2nc(CCc3ccc4cccnc4n3)nc12 [Compound 138] | < 500
Cc1ncc(C)n2nc(CCc3ccc4ccncc4n3)nc12 [Compound 139] | 1000 to 10000
Cc1ncc(C)n2nc(CCc3ccc4ncccc4n3)nc12 [Compound 140] | < 500
Cc1ncc(C)n2nc(CCc3ccc4ccc5nccnc5c4n3)nc12 [Compound 141] | < 500
Cn1c(CCc2cnc3c(C(F)(F)F)ccc(C(F)(F)F)c3n2)nc2c3cccnc3ccc21 [Compound 143] | < 500
c1ccc2nc(CCc3nc4c5cccnc5ccn4n3)ccc2c1 [Compound 147] | < 500
Cn1c(CCc2cnc3c(F)ccc(F)c3n2)nc2c3cccnc3ccc21 [Compound 148] | < 500
Cn1cc(-c2ccccc2)nc1CCc1cccc(-n2ccnc2)n1 [Compound 150] | 1000 to 10000
Cn1cc(-c2ccccc2)nc1CCc1cccc(C(N)=O)n1 [Compound 151] | > 10000

Structure (SMILES) | IC50 [nM]
Cn1cc(-c2ccccc2)nc1CCc1cccc(-c2ccncc2)n1 [Compound 152] | 1000 to 10000
c1ccc2nc(CCc3nc4c5ncccc5ccn4n3)ccc2c1 [Compound 153] | < 500
Cn1c(CCc2cnc3ccccc3n2)nc2c3ncccc3ccc21 [Compound 154] | < 500
c1cnc2c(c1)ccc1ccc(CCc3nc4ccccn4n3)nc12 [Compound 156] | < 500
c1cnc2c(c1)ccn1nc(CCc3cnc4ccccc4n3)nc21 [Compound 157] | < 500
c1cnc2c(c1)ccc1ccc(CCc3cnc4ccccc4n3)nc12 [Compound 158] | < 500
c1ccc2nc(CCc3ccc4ccc5cccnc5c4n3)ccc2c1 [Compound 159] | < 500
COc1cccc2ccc(CCc3nc4c5ncccc5ccc4n3C)nc12 [Compound 160] | 500 to 1000
COc1cccc2ccc(CCc3nc4c5cccnc5ccc4n3C)nc12 [Compound 161] | < 500
COc1cccc2ccc(CCc3ccc4ccc5cccnc5c4n3)nc12 [Compound 162] | 1000 to 10000
Cn1c(CCc2ccc3cnccc3n2)nc2c3ncccc3ccc21 [Compound 163] | < 500
Cc1ncc(C)c2nc(CCc3nc4c5ncccc5ccc4n3C)ccc12 [Compound 164] | < 500
Cc1ncc(C)c2nc(CCc3nc4c5cccnc5ccc4n3C)ccc12 [Compound 165] | < 500
Cc1ncc(C)c2nc(CCc3nc4c(ccc5ncccc54)[nH]3)ccc12 [Compound 166] | < 500
Cc1ncc(C)c2nc(CCc3nc4c5cccnc5ccn4n3)ccc12 [Compound 167] | < 500
Cc1ncc(C)n2nc(CCc3ccc4ccc5c(c4n3)NCCO5)nc12 [Compound 168] | 1000 to 10000
Cc1cc2c(nc(CCc3ccc4ccccc4n3)n2C)c2cccnc12 [Compound 169] | > 10000
Cc1cc2ncccc2c2nc(CCc3ccc4ccccc4n3)n(C)c12 [Compound 170] | < 500
Cn1c(CCc2ccc3ccc4cccnc4c3n2)nc2c3cccnc3ccc21 [Compound 171] | < 500
